For the assay, the system named is human leukemia cell line HPBALL (with Notch1 mutations). Put plainly: Cell cycle (PI staining, S-G2-M cells) and cell number, HPBALL. The assay is classed as cell-based. Conditions: Homo sapiens, 144 h; HPBALL, 6 days; read-out: IC50 (inhibition of proliferation, percentage of S-G2-M cells). As to the method:
FIG. 1A is a series of charts showing representative cell cycle profiles of human leukemia cell line HPBALL (with Notch1 mutations) treated with a vehicle (V) (for ribociclib (LEE) or compound GD) or LEE or compound GD for 6 days at 1, 5, 10, and 20 μM.
FIG. 1B is a histogram summarizing the cell cycle distribution of the HPBALL cell line treated with compound GD, as described for FIG. 1A. Data shown are mean±S.D. (n=6); *P<0.05 vs its vehicle controls, t-test.
FIG. 1C is a histogram summarizing the cell cycle distribution of the HPBALL cell line treated with ribociclib (LEE), as described for FIG. 1A. Data shown are mean±S.D. (n=6); *P<0.05 vs its vehicle controls, t-test.
FIG. 1D is a chart the percentage of S-G2-M cells in FIGS. 1B and 1C. IC50 is the concentration of an inhibitor where the response (here is the inhibition of proliferation) is reduced by half.
FIG. 1E is a bar graph summarizing the cell numbers of HPBALL cells treated with either GD with different doses or LEE (20 μM) for 6 days. Data shown are mean±S.D. (n=6); *P<0.05 vs vehicles (0) control, t-test.
HCl salt of 6-acetyl-5-methyl-2-((4-(piperazin-1-ylmethyl)thiazol-2-yl)amino)pyrido[2,3-d]pyrimidin-7(8H)-one (Compound GD) prepared in Example 1 was examined for its inhibitory activity in cancer cell lines and WT and CDK6^−/− mouse embryonic fibroblasts (MEFs) and stromal vascular fractions (SVFs). […]
Table 2: Experimental Procedures: sensitivity to CDK6 kinase activity inhibition was tested by incubating different cell lines in the presence of CDK6 inhibitor GD007/PBS for either 24 hours for detecting the status of pRB-780 phosphorylation, or 5 days for determining the effect of GD007 on cell proliferation. (1) By immunoblotting (WB), we will detect phospho-pRB-S^780, one of the substrates of CDK6 kinase; (2) By using FACS analysis, we will stain treated cells with Propidium Iodide (PI), a commonly used fluorescent intercalator, to measure the subpopulation of cell cycle to reveal any impact of CDK6 inhibition on cell proliferation; (3) cell numbers will be counted using hemocytometer.

Take `CN(C)C(=O)c1cc2cnc(Nc3ccc(N4CCNCC4)cn3)nc2n1C1CCCC1` [LEE, ribociclib, reference compound]: the IC50 is ~12 µM.
